Data from publication PMC7614683, “A small molecule PI3Kα activator for cardioprotection and neuroregeneration” (Nature, 2023).
Like-named read-outs stand apart in the source and are kept apart here.

Tests used:
Test in all cases: SelectScreen Z-LYTE kinase activity assay (SI Table 6)
Type in all cases: biochemical
[1] = target: T1, protein kinases of the Z-LYTE panel (Homo sapiens, UniProt O14920)
T1 sequence (O14920 1-756): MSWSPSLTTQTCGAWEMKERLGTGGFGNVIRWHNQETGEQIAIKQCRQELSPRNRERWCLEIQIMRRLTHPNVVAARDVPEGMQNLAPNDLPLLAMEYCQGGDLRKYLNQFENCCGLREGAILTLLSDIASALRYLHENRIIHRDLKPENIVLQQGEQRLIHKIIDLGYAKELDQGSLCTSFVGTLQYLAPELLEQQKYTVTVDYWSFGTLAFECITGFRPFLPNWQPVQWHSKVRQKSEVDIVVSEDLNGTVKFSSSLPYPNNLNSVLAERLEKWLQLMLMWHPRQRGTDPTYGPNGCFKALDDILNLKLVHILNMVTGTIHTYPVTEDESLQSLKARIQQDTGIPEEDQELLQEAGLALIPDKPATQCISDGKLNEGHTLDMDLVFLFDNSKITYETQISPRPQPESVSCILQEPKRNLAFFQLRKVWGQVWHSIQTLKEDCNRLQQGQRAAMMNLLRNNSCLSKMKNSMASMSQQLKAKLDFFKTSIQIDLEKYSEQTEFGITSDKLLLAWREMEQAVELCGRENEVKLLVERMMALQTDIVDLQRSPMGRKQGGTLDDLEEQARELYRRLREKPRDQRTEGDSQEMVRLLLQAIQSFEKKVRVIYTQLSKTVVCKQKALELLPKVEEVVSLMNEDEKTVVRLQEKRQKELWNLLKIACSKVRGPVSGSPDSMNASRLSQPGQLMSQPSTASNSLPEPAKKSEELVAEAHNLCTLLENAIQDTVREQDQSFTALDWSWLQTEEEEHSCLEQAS
In short: (§1)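 Kinases in the SelectScreen panel (Adapta, LanthaScreen binding, Z-LYTE formats) were tested against compound at 1 μM. Separately, ATM (100 nM, 5 μM GST-p53, 1 mM ATP, 30 min, 30°C) and mTORC1 (50 nM, 15 μM 4E-BP1, 250 μM ATP, 3 h) were run with 200 μM compound. Those products were read on Phos-tag gels.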

[2] = target: protein kinases of the Z-LYTE panel (Homo sapiens, UniProt P07333)
Sequence of protein kinases of the Z-LYTE panel (Homo sapiens, UniProt P07333) (P07333 20-972): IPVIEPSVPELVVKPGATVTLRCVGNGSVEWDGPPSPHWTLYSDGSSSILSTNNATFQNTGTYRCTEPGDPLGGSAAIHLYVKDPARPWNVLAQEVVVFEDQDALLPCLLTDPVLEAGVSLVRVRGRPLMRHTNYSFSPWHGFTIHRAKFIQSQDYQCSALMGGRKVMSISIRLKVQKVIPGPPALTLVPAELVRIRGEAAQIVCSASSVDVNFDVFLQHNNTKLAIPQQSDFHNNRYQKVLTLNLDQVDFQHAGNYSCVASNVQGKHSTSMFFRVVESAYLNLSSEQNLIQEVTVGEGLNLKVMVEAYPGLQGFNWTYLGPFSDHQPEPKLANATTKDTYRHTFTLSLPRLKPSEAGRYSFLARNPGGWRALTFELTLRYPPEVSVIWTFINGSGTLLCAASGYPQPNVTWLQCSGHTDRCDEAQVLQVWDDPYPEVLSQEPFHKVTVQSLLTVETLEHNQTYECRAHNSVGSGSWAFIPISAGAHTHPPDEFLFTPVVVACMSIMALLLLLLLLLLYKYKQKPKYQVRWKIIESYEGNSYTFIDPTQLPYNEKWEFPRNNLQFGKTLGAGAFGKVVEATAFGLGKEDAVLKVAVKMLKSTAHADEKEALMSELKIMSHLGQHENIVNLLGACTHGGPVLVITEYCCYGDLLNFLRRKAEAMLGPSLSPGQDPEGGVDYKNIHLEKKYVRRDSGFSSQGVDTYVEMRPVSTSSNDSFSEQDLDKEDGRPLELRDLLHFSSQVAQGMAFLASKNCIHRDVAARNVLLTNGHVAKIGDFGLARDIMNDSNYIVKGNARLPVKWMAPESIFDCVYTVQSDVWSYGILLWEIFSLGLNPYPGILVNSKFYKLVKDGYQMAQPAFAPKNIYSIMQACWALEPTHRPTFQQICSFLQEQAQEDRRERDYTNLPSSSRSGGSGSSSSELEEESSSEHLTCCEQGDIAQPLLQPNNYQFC
In short: as §1

[3] = target: protein kinases of the Z-LYTE panel (Homo sapiens, UniProt Q06187)
Sequence of protein kinases of the Z-LYTE panel (Homo sapiens, UniProt Q06187) (Q06187 whole entry): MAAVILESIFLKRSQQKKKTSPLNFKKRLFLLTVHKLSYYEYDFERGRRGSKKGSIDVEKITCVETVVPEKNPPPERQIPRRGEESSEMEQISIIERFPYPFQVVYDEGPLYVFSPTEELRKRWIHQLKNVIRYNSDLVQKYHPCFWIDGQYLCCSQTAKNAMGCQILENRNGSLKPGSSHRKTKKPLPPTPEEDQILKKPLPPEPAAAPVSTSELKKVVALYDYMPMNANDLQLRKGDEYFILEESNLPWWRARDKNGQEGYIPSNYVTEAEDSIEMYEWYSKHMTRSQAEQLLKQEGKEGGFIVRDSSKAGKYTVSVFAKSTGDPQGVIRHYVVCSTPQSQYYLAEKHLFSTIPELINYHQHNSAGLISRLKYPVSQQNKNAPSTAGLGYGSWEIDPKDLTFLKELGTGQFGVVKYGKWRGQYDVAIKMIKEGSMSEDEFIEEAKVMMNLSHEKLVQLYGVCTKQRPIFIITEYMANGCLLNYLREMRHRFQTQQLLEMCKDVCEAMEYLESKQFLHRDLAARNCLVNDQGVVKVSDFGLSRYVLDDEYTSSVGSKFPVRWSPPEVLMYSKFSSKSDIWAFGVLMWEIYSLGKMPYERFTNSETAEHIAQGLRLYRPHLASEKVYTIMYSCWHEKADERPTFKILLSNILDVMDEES
In short: as §1

[4] = target: protein kinases of the Z-LYTE panel (Homo sapiens, UniProt Q16539)
Sequence of protein kinases of the Z-LYTE panel (Homo sapiens, UniProt Q16539) (Q16539 whole entry): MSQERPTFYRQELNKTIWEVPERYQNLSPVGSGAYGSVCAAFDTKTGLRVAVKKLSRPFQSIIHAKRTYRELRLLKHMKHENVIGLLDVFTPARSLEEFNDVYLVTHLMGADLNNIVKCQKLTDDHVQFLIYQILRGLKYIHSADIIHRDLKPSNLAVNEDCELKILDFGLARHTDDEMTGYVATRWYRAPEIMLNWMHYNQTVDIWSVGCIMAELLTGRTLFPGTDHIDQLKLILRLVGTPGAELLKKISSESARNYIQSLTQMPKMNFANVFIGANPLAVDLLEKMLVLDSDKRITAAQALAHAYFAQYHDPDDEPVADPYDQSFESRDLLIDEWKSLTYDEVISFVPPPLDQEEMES
In short: as §1

[5] = target: protein kinases of the Z-LYTE panel (Homo sapiens, UniProt Q9H792)
Sequence of protein kinases of the Z-LYTE panel (Homo sapiens, UniProt Q9H792) (Q9H792 whole entry): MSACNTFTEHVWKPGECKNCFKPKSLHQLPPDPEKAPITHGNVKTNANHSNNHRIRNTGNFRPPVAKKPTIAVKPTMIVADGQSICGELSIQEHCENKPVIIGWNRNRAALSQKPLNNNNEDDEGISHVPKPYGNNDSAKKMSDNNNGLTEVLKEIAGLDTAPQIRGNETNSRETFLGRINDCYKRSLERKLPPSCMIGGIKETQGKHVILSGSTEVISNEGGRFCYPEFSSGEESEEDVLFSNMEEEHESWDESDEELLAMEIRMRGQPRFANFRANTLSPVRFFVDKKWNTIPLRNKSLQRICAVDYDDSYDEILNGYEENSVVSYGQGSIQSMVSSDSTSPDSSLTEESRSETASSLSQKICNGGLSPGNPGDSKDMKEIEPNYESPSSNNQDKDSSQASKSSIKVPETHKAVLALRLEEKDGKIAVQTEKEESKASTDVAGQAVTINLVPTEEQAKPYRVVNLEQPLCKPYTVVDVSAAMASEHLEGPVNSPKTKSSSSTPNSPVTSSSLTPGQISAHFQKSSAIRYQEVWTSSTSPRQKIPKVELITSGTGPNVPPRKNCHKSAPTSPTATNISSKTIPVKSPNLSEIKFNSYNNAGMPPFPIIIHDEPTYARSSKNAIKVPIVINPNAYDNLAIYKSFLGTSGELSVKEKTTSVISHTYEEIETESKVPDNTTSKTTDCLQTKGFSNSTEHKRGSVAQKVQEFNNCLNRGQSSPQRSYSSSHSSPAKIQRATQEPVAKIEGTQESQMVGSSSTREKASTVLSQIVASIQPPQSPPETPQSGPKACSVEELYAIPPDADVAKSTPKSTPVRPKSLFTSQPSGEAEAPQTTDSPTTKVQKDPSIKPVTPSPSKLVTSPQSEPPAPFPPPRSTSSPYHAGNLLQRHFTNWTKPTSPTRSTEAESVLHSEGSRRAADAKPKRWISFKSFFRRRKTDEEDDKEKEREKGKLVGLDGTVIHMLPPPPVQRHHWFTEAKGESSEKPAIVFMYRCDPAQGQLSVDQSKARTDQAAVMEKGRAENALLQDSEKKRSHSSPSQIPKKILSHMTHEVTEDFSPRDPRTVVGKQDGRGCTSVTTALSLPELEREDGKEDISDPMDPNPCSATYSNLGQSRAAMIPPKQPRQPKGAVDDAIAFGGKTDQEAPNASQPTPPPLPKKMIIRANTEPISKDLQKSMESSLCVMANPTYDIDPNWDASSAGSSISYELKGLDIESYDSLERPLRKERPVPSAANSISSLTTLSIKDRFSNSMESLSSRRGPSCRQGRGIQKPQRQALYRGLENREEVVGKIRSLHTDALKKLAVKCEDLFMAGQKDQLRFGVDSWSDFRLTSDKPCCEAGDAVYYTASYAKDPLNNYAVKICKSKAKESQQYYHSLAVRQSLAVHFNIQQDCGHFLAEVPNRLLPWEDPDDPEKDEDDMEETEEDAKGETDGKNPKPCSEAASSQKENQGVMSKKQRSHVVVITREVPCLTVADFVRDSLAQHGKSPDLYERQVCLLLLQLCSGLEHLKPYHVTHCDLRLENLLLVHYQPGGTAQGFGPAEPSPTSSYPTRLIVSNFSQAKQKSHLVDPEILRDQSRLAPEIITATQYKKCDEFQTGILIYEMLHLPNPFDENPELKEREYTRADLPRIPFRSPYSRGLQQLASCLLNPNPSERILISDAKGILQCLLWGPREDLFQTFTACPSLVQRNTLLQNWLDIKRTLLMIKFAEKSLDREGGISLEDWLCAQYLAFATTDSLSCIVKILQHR
In short: as §1

[6] = target: T2, protein kinases of the Z-LYTE panel (Homo sapiens, UniProt Q9UHD2)
T2 sequence (Q9UHD2 1-729): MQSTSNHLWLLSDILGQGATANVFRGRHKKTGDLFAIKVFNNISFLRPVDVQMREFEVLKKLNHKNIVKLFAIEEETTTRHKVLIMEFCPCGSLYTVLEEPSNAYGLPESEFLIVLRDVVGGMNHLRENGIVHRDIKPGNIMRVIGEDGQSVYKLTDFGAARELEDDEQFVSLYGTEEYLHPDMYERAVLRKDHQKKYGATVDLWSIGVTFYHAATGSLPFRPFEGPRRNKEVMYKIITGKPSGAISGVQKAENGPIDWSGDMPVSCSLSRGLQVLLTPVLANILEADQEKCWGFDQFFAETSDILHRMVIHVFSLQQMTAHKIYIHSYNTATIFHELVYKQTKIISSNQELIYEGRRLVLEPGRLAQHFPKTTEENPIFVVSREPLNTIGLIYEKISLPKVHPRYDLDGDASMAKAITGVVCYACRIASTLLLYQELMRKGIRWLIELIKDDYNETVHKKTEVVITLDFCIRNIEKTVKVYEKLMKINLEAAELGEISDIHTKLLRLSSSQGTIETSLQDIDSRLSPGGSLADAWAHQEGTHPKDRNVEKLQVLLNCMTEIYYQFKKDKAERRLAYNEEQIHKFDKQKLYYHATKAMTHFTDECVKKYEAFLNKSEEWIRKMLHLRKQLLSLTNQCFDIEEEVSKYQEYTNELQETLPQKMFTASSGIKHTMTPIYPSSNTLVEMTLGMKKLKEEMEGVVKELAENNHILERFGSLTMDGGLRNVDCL
In short: as §1

## CCN1CCN(c2ccc(Nc3cc(Nc4cccc5c4N(C(C)=O)CC5)ccn3)cc2)CC1 [Compound 1938]
[1]; read-out: % Inhibition Point 1
  inhibition at 1 µM: 8.52%
[1]; read-out: % Inhibition Point 2
  inhibition at 1 µM: 7%
[1]; read-out: % Inhibition mean
  inhibition at 1 µM: 7.61%
[2]; read-out: % Inhibition Point 1
  inhibition at 1 µM: 15%
[2]; read-out: % Inhibition Point 2
  inhibition at 1 µM: 15%
[2]; read-out: % Inhibition mean
  inhibition at 1 µM: 15%
[3]; read-out: % Inhibition Point 1
  inhibition at 1 µM: 9%
[3]; read-out: % Inhibition Point 2
  inhibition at 1 µM: 8%
[3]; read-out: % Inhibition mean
  inhibition at 1 µM: 9%
[4]; read-out: % Inhibition Point 1
  inhibition at 1 µM: 9%
[4]; read-out: % Inhibition Point 2
  inhibition at 1 µM: 9%
[4]; read-out: % Inhibition mean
  inhibition at 1 µM: 9%
[5]; read-out: % Inhibition Point 1
  inhibition at 1 µM: 25%
[5]; read-out: % Inhibition Point 2
  inhibition at 1 µM: 18%
[5]; read-out: % Inhibition mean
  inhibition at 1 µM: 21%
[6]; read-out: % Inhibition Point 1
  inhibition at 1 µM: 4%
[6]; read-out: % Inhibition Point 2
  inhibition at 1 µM: 7.54%
[6]; read-out: % Inhibition mean
  inhibition at 1 µM: 6%
